Reference: patent US4471131A, “Novel silyl esters of N-phosphonomethylglycine” (Monsanto Company, priority 1983, dated 1984)

Experiments:
Assay in all cases: post-emergence herbicidal activity, greenhouse
Type in all cases: in vivo
Yellow Nutsedge = conditions: Table II, 11.2 kg/h, formulated immediately prior to treatment
Description: (§1) A good grade of top soil is placed in aluminum pans having holes in the bottom and compacted to a depth of 0.95 to 1.27 cm. from the top of the pan. A predetermined number of seeds of each of several dicotyledonous and moncotyledonous annual plant species and/or vegetative propagules for the perennial plant species were placed on the soil and pressed into the soil surface. The seeds and/or vegetative propagules are covered with soil and leveled. The pans are then placed on a sand bench in the greenhouse and watered from below as needed. After the plants reach the desired age (two to three weeks), each pan, except for the control pans, is removed individually to a spraying chamber and sprayed by means of an atomizer at the rates noted. In the spray solution is an amount of an emulsifying agent mixture to give a spray solution or suspension which contains about 0.4% by weight of the emulsifier. The spray solution or suspension contains a sufficient amount of the candidate chemical in order to give application rates corresponding to those set forth in the tables. The pans were returned to the greenhouse and watered as before and the injury to the plants as compared to the control is observed at approximately two and four weeks and the results recorded. In the tables, WAT means "weeks after treatment."
(§2) The post-emergent herbicidal activity index used in Tables II and III is as follows:
(§3) The plant species utilized in these tests are identified by letter in accordance with the following legend: […]

Sugar Beet = conditions: Table III, 2 WAT
Description: as §1, §2, §3

Downy Brome = tested on: Downy Brome
Description: as §1, §2, §3

Hemp Sesbania = conditions: Table III, 2 WAT
Description: as §1, §2, §3

Barnyardgrass = tested on: Barnyardgrass
Description: as §1, §2, §3

Common Lambsquarters = tested on: Common Lambsquarters
Description: as §1, §2, §3

Quackgrass = conditions: Table II, 11.2 kg/h, formulated immediately prior to treatment
Description: as §1, §2, §3

Wild Buckwheat = conditions: Table III, 2 WAT
Description: as §1, §2, §3

Rice = conditions: Table III, 2 WAT
Description: as §1, §2, §3

Cocklebur = tested on: Cocklebur
Description: as §1, §2, §3

Johnsongrass = conditions: Table II, 11.2 kg/h, formulated immediately prior to treatment
Description: as §1, §2, §3

Morningglory = tested on: Morningglory
Description: as §1, §2, §3

Large Crabgrass = conditions: Table III, 2 WAT
Description: as §1, §2, §3

Soybean = conditions: Table III, 2 WAT
Description: as §1, §2, §3

Pennsylvania Smartweed = tested on: Pennsylvania Smartweed
Description: as §1, §2, §3

Canada Thistle = conditions: Table II, 11.2 kg/h, formulated immediately prior to treatment
Description: as §1, §2, §3

Panicum Spp = conditions: Table III, 2 WAT
Description: as §1, §2, §3

Velvetleaf = tested on: Velvetleaf
Description: as §1, §2, §3

[1] = Table II, 2 WAT, 11.2 kg/h, formulated immediately prior to treatment
[2] = Table II, 4 WAT, 11.2 kg/h, formulated immediately prior to treatment

CC(C)OC(=O)CNCP(=O)(O[Si](c1ccccc1)(c1ccccc1)C(C)(C)C)O[Si](c1ccccc1)(c1ccccc1)C(C)(C)C [Ex. 1]
Plant Response Index (G) (Yellow Nutsedge; 2 WAT): 1 (25-49% inhibition)
Plant Response Index (G) (Yellow Nutsedge; 4 WAT): 2 (50-74% inhibition)
Plant Response Index (M) (Sugar Beet; 1.1 kg/h): 1 (25-49% inhibition)
Plant Response Index (M) (Sugar Beet; 5.6 kg/h): 3 (75-99% inhibition)
Plant Response Index (J) (Downy Brome; [1]): 1 (25-49% inhibition)
Plant Response Index (J) (Downy Brome; [2]): 1 (25-49% inhibition)
Plant Response Index (J) (Downy Brome; Table III, 2 WAT, 1.1 kg/h): 0 (0-24% inhibition)
Plant Response Index (J) (Downy Brome; Table III, 2 WAT, 5.6 kg/h): 3 (75-99% inhibition)
Plant Response Index (R) (Hemp Sesbania; 1.1 kg/h): 0 (0-24% inhibition)
Plant Response Index (R) (Hemp Sesbania; 5.6 kg/h): 2 (50-74% inhibition)
Plant Response Index (K) (Barnyardgrass; [1]): 2 (50-74% inhibition)
Plant Response Index (K) (Barnyardgrass; [2]): 3 (75-99% inhibition)
Plant Response Index (K) (Barnyardgrass; Table III, 2 WAT, 1.1 kg/h): 1 (25-49% inhibition)
Plant Response Index (K) (Barnyardgrass; Table III, 2 WAT, 5.6 kg/h): 4 (100% inhibition)
Plant Response Index (E) (Common Lambsquarters; [1]): 0 (0-24% inhibition)
Plant Response Index (E) (Common Lambsquarters; [2]): 0 (0-24% inhibition)
Plant Response Index (E) (Common Lambsquarters; Table III, 2 WAT, 1.1 kg/h): 0 (0-24% inhibition)
Plant Response Index (E) (Common Lambsquarters; Table III, 2 WAT, 5.6 kg/h): 3 (75-99% inhibition)
Plant Response Index (H) (Quackgrass; 2 WAT): 0 (0-24% inhibition)
Plant Response Index (H) (Quackgrass; 4 WAT): 1 (25-49% inhibition)
Plant Response Index (Q) (Wild Buckwheat; 1.1 kg/h): 0 (0-24% inhibition)
Plant Response Index (Q) (Wild Buckwheat; 5.6 kg/h): 3 (75-99% inhibition)
Plant Response Index (O) (Rice; 1.1 kg/h): 0 (0-24% inhibition)
Plant Response Index (O) (Rice; 5.6 kg/h): 3 (75-99% inhibition)
Plant Response Index (B) (Cocklebur; [1]): 1 (25-49% inhibition)
Plant Response Index (B) (Cocklebur; [2]): 1 (25-49% inhibition)
Plant Response Index (B) (Cocklebur; Table III, 2 WAT, 1.1 kg/h): 0 (0-24% inhibition)
Plant Response Index (B) (Cocklebur; Table III, 2 WAT, 5.6 kg/h): 2 (50-74% inhibition)
Plant Response Index (I) (Johnsongrass; 2 WAT): 0 (0-24% inhibition)
Plant Response Index (I) (Johnsongrass; 4 WAT): 2 (50-74% inhibition)
Plant Response Index (D) (Morningglory; [1]): 1 (25-49% inhibition)
Plant Response Index (D) (Morningglory; [2]): 2 (50-74% inhibition)
Plant Response Index (D) (Morningglory; Table III, 2 WAT, 1.1 kg/h): 0 (0-24% inhibition)
Plant Response Index (D) (Morningglory; Table III, 2 WAT, 5.6 kg/h): 2 (50-74% inhibition)
Plant Response Index (T) (Large Crabgrass; 1.1 kg/h): 2 (50-74% inhibition)
Plant Response Index (T) (Large Crabgrass; 5.6 kg/h): 4 (100% inhibition)
Plant Response Index (L) (Soybean; 1.1 kg/h): 0 (0-24% inhibition)
Plant Response Index (L) (Soybean; 5.6 kg/h): 1 (25-49% inhibition)
Plant Response Index (F) (Pennsylvania Smartweed; [1]): 3 (75-99% inhibition)
Plant Response Index (F) (Pennsylvania Smartweed; [2]): 3 (75-99% inhibition)
Plant Response Index (F) (Pennsylvania Smartweed; Table III, 2 WAT, 1.1 kg/h): 0 (0-24% inhibition)
Plant Response Index (F) (Pennsylvania Smartweed; Table III, 2 WAT, 5.6 kg/h): 3 (75-99% inhibition)
Plant Response Index (A) (Canada Thistle; 2 WAT): 0 (0-24% inhibition)
Plant Response Index (A) (Canada Thistle; 4 WAT): 1 (25-49% inhibition)
Plant Response Index (S) (Panicum Spp; 1.1 kg/h): 0 (0-24% inhibition)
Plant Response Index (S) (Panicum Spp; 5.6 kg/h): 3 (75-99% inhibition)
Plant Response Index (C) (Velvetleaf; [1]): 0 (0-24% inhibition)
Plant Response Index (C) (Velvetleaf; [2]): 1 (25-49% inhibition)
Plant Response Index (C) (Velvetleaf; Table III, 2 WAT, 1.1 kg/h): 0 (0-24% inhibition)
Plant Response Index (C) (Velvetleaf; Table III, 2 WAT, 5.6 kg/h): 2 (50-74% inhibition)
